Experimental findings from patent US12312330B2, “1-((S)-1-(3-chloro-5-fluoro-2-((4-(1h-pyrazol-1-yl)-2-methylquinolin-8-yloxy)methyl)phenyl)ethyl)-imidazolidine-2,4-dione derivatives and related compounds as bradykinin (BK) B2 receptor antagonist for treating skin diseases” (Pharvaris GmbH, priority 2019, dated 2025) are described below.

Each structure is given as a SMILES string. pIC50: −log10 of the molar value. Some results are limits rather than exact numbers.

The experiment addresses T1, human bradykinin B2 receptor (hB2R) (Homo sapiens, UniProt P30411).
T1 sequence (P30411 1-391): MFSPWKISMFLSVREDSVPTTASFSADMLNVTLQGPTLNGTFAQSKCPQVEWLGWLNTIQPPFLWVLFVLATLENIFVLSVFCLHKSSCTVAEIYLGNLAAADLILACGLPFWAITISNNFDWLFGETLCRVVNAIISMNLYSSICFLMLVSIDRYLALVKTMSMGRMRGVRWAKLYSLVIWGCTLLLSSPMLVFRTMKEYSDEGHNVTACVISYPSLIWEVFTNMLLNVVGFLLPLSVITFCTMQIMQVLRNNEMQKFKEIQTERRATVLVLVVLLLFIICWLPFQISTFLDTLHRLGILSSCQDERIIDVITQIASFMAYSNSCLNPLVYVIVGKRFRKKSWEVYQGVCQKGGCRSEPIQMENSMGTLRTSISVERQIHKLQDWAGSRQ
Briefly: human bradykinin B2 receptor calcium mobilization (hB2R-CaM) assay. The format is cell-based. Conditions: antagonism of bradykinin (EC80) induced calcium mobilization, B2 Bradykinin Receptor Stable Cell Line HTS041C, 25 min pre-incubation; read-out: IC50-value towards human bradykinin B2 receptor (hB2R). The source says: The following cell-based human bradykinin B2 receptor calcium mobilization (hB2R-CaM) assay was used to determine the antagonistic activity of compounds selected from the example compounds Nos. 1 to 107 towards human bradykinin B2 receptor (hB2R). The assay is defined herein as a standard in vitro B2 receptor activity assay, which can be used to determine IC50 values of the compounds according to the present invention, e. g. the compounds shown in Examples 1-13.
The antagonistic activity of compounds according to the present invention was investigated with the hB2R-CaM assay using the B2 Bradykinin Receptor Stable Cell Line HTS041C (Eurofins, St. Charles MO) and the FLIPR Calcium 6 Assay Kit (Molecular Devices, Wokingham, UK) according to the instructions of the providers. CaM assay measurements were performed with a Flexstation 3 System (Molecular Devices) which allows the precise addition of compounds (B2R antagonists) and bradykinin (B2R agonist) to the cells and adjacent continuous recording of the time-dependent CaM assay signals.
HTS041C cells were cultured in high glucose DMEM cell culture medium (Lonza) supplemented with 10% heat-inactivated FBS (PAN Biotech), 10 mM HEPES, Penicillin/Streptomycin (200 U/mL, 200 μg/mL), lx non-essential amino acids (Lonza), and 250 μg/mL G418 (Invivogen) in cell incubator at 37° C. in a 5% CO2 atmosphere. One day before the CaM assay experiments cells were seeded in 200 μL DMEM cell culture medium with reduced FBS (5%) and without G418 on clear bottom black 96 well plates (ThermoFisher #165305). Cell starvation was carried out by incubation (37° C., 5% CO2) of 70.000 cells/well for 24 h to 28 h. Immediately prior calcium dye-loading the medium was carefully aspirated and cells were washed with Hank's balanced salt solution (HBSS, Gibco) containing Ca^2+, Mg^2+ and 20 mM HEPES, adjusted to pH 7.4 (HBSS+).
For calcium dye-loading one FLIPR 6 assay aliquot was dissolved in 20 mL HBSS+. 150 μL of the dye loading solution was added to cell plate and incubated for 120 min at 37° C. and 5% CO2. After dye loading the cell plate was immediately transferred to the pre-warmed (37° C.) Flexstation 3 System for CaM assaying.
Freshly prepared compound (B2 receptor antagonists) dilution series (8 pt, n=2) and bradykinin (B2 receptor agonist) solution in non-binding plates (Costar) were transferred to the Flexstation System (source plate) shortly before starting the experiment. Bradykinin was added in EC80 concentration determined in n>3 preliminary experiments with 8 pt concentration response curves (n=8)). CaM assay was executed by Flexstation 3 System starting with recording of calcium-sensitive dye fluorescence in bottom-read Flex modus with ex/em=485 nm/525 nm, cut off(em)=515 nm After 20 s, 50 μL of 4-fold concentrated compound dilutions were added to the cells resulting in a final DMSO (Sigma) concentration of 0.1% in the cell plate. CaM signals were monitored for 80 s after additions for detection of potential agonistic activities. Prior to bradykinin stimulus compound- and vehicle-treated cells were incubated for 25 min at 37° C. within the Flexstation System. Then 50 μL of a 5-fold concentrated bradykinin solution (HBSS+, 0.1% DMSO) was added to trigger CaM signals (Read out: Max-Min values) which were measured for 80 s post bradykinin stimulus.
IC50 determinations were performed by 4 parameter logistic model curve fitting of the 8 pt (n=2) compound concentration response curves using XLFIT (IDBS) software.

On to `CCN1C(=O)C(C)N([C@@H](C)c2cc(F)cc(Cl)c2COc2cccc3c(-n4cc(F)cn4)cc(C)nc23)C1=O` (single isomer, unassigned) [Compound No. 2], for which the pIC50 was 7.00 to 7.96.

As to `CCN1C(=O)C(C)N([C@@H](C)c2cc(F)cc(Cl)c2COc2cccc3c(-n4cc(F)cn4)cc(C)nc23)C1=O` (single isomer, unassigned) [compound 29], the pIC50 was 7.00 to 7.96.

In the case of `Cc1cc(-n2cc(F)cn2)c2cccc(OCc3c(Cl)cc(F)cc3[C@H](C)N3C(=O)N(C4CC4)C(=O)C3C)c2n1` (single isomer, unassigned) [compound 30], the pIC50 was not below 8.00.

Turning to `Cc1cc(-n2cc(F)cn2)c2cccc(OCc3c(Cl)cc(F)cc3[C@H](C)N3C(=O)N(C4CC4)C(=O)C3C)c2n1` (single isomer, unassigned) [compound 31], the pIC50 was 6.30 to 7.00.

On to `Cc1cc(-n2cc(F)cn2)c2cccc(OCc3c(Cl)cc(F)cc3[C@H](C)N3C(=O)COCC3C)c2n1` (single isomer, unassigned) [compound 32], for which the negative-log IC50 (pIC50) was 7.00 to 7.96.

In the case of `Cc1cc(-n2cc(F)cn2)c2cccc(OCc3c(Cl)cc(F)cc3[C@H](C)N3CCOC(C)C3=O)c2n1` (single isomer, unassigned) [compound 35], the pIC50 is 7.00 to 7.96.

Consider `Cc1cc(-c2ncnn2C)c2cccc(OCc3c(Cl)cc(F)cc3[C@H](C)N3CCOC(C)C3=O)c2n1` (single isomer, unassigned) [compound 48], for which the pIC50 was not below 8.00.

As to `COC1CN([C@@H](C)c2cc(F)cc(Cl)c2COc2cccc3c(-n4cc(F)cn4)cc(C)nc23)C(=O)O1` (single isomer, unassigned) [compound 51], the pIC50 was 7.00 to 7.96.

As to `COC1CN([C@@H](C)c2cc(F)cc(Cl)c2COc2cccc3c(-n4cc(F)cn4)cc(C)nc23)C(=O)O1` (single isomer, unassigned) [compound 52], the pIC50 was 6.30 to 7.00.

As for `CCN1C(=O)C(C)N([C@@H](C)c2cc(F)cc(Cl)c2COc2cccc3c(-c4ncnn4C)cc(C)nc23)C1=O` (single isomer, unassigned) [compound 53], the pIC50 is not below 8.00.

For `CCN1C(=O)C(C)N([C@@H](C)c2cc(F)cc(Cl)c2COc2cccc3c(-c4ncnn4C)cc(C)nc23)C1=O` (single isomer, unassigned) [compound 54], the pIC50 is 7.00 to 7.96.

As to `Cc1cc(-c2ncnn2C)c2cccc(OCc3c(Cl)cc(F)cc3[C@H](C)N3C(=O)N(C4CC4)C(=O)C3C)c2n1` (single isomer, unassigned) [compound 55], the pIC50 is not below 8.00.

For the molecule `Cc1cc(-c2ncnn2C)c2cccc(OCc3c(Cl)cc(F)cc3[C@H](C)N3C(=O)N(C4CC4)C(=O)C3C)c2n1` (single isomer, unassigned) [compound 56], the pIC50 is 7.00 to 7.96.

For the molecule `Cc1cc(-n2cc(F)cn2)c2cccc(OCc3c(Cl)cc(F)cc3[C@H](C)N3CCC(C)C3=O)c2n1` (single isomer, unassigned) [compound 58], the pIC50 was 7.00 to 7.96.

Turning to `Cc1cc(-c2ncnn2C)c2cccc(OCc3c(Cl)cc(F)cc3[C@H](C)N3CCC(C)C3=O)c2n1` (single isomer, unassigned) [compound 60], the pIC50 was not below 8.00.

For the molecule `Cc1cc(-c2ncnn2C)c2cccc(OCc3c(Cl)cc(F)cc3[C@H](C)N3C(=O)COCC3C)c2n1` (single isomer, unassigned) [compound 70], the pIC50 is 7.00 to 7.96.

Turning to `Cc1cc(-n2cc(F)cn2)c2cccc(OCc3c(Cl)cc(F)cc3[C@H](C)N3CC(=O)N(CC(N)=O)C3=O)c2n1` [Compound No. 1, (S)-2-(3-(1-(3-chloro-5-fluoro-2-((4-(4-fluoro-1H-pyrazol-1-yl)-2-methylquinolin-8-yloxy)methyl)phenyl)ethyl)-2,5-dioxoimidazolidin-1-yl)acetamide], the pIC50 is 7.00 to 7.96.

Consider `Cc1cc(-n2cc(F)cn2)c2cccc(OCc3c(Cl)cc(F)cc3[C@H](C)N3CCNC3=O)c2n1` [Compound No. 3, (S)-1-(1-(3-chloro-5-fluoro-2-((4-(4-fluoro-1H-pyrazol-1-yl)-2-methylquinolin-8-yloxy)methyl)phenyl)ethyl)imidazolidin-2-one], for which the pIC50 is 7.00 to 7.96.

With `Cc1cc(-c2ncnn2C)c2cccc(OCc3c(Cl)cc(F)cc3[C@H](C)N3CC[C@H](O)C3=O)c2n1` [Compound No. 4, (S)-1-((S)-1-(3-chloro-5-fluoro-2-((2-methyl-4-(1-methyl-1H-1,2,4-triazol-5-yl)quinolin-8-yloxy)methyl)phenyl)ethyl)-3-hydroxypyrrolidin-2-one], the pIC50 was not below 8.00.

For `Cc1cc(-c2ncnn2C)c2cccc(OCc3c(Cl)cc(F)cc3[C@H](C)N3CC[C@@H](F)C3=O)c2n1` [Compound No. 5, (R)-1-((S)-1-(3-chloro-5-fluoro-2-((2-methyl-4-(1-methyl-1H-1,2,4-triazol-5-yl)quinolin-8-yloxy)methyl)phenyl)ethyl)-3-fluoropyrrolidin-2-one], the pIC50 is not below 8.00.

As for `Cc1cc(-c2ncnn2C)c2cccc(OCc3c(Cl)cc(F)cc3[C@H](C)N3C[C@@H](OC(F)F)CC3=O)c2n1` [Compound No. 6, (S)-1-((S)-1-(3-chloro-5-fluoro-2-((2-methyl-4-(1-methyl-1H-1,2,4-triazol-5-yl)quinolin-8-yloxy)methyl)phenyl)ethyl)-4-(difluoromethoxy)pyrrolidin-2-one], the pIC50 was 7.00 to 7.96.

For `Cc1cc(-c2ncnn2C)c2cccc(OCc3c(Cl)cc(F)cc3[C@H](C)N3CCC[C@@H](O)C3=O)c2n1` [Compound No. 7, (R)-1-((S)-1-(3-chloro-5-fluoro-2-((2-methyl-4-(1-methyl-1H-1,2,4-triazol-5-yl)quinolin-8-yloxy)methyl)phenyl)ethyl)-3-hydroxypiperidin-2-one], the pIC50 is 7.00 to 7.96.

Consider `Cc1cc(-c2ncnn2C)c2cccc(OCc3c(Cl)cc(F)cc3[C@H](C)N3C[C@@H](O)CCC3=O)c2n1` [Compound No. 8, (S)-1-((S)-1-(3-chloro-5-fluoro-2-((2-methyl-4-(1-methyl-1H-1,2,4-triazol-5-yl)quinolin-8-yloxy)methyl)phenyl)ethyl)-5-hydroxypiperidin-2-one], for which the pIC50 is 7.00 to 7.96.

Consider `Cc1cc(-n2cc(F)cn2)c2cccc(OCc3c(Cl)cc(F)cc3[C@H](C)N3CCN(C)CC3=O)c2n1` [Compound No. 9, (S)-1-(1-(3-chloro-5-fluoro-2-((4-(4-fluoro-1H-pyrazol-1-yl)-2-methylquinolin-8-yloxy)methyl)phenyl)ethyl)-4-methylpiperazin-2-one], for which the pIC50 was 7.00 to 7.96.

`Cc1cc(-c2ncnn2C)c2cccc(OCc3c(Cl)cc(F)cc3[C@H](C)N3CCN(C)C(C)(C)C3=O)c2n1` [Compound No. 10, (S)-1-(1-(3-chloro-5-fluoro-2-((2-methyl-4-(1-methyl-1H-1,2,4-triazol-5-yl)quinolin-8-yloxy)methyl)phenyl)ethyl)-3,3,4-trimethylpiperazin-2-one]: the pIC50 was 7.00 to 7.96.

On to `Cc1cc(-n2cc(F)cn2)c2cccc(OCc3c(Cl)cc(F)cc3[C@H](C)N3C[C@@H](C)N(C)C(=O)C3=O)c2n1` [Compound No. 11, (R)-1-((S)-1-(3-chloro-5-fluoro-2-((4-(4-fluoro-1H-pyrazol-1-yl)-2-methylquinolin-8-yloxy)methyl)phenyl)ethyl)-4,5-dimethylpiperazine-2,3-dione], for which the pIC50 was not below 8.00.

Usually pIC50 stands for the IC50 on a negative log10 scale, so that one unit is a factor of ten.
